Measured values: patent US8450243B2, “Herbicidal quinoline and 1,8-naphthyridine compounds” (Syngenta Limited, priority 2009, dated 2013)

Assays:
Type in all cases: in vivo
[1] = tested on: Echinochloa crus-galli (ECHCG); assay: Herbicidal glasshouse test, post-emergence; conditions: POST Application, evaluated after 13 days; for damage to plant (100=total damage to plant; 0=no damage to plant): 250 g/ha
Experimental: (§1) Seeds of a variety of test species were sown in standard soil in pots (Alopecurus myosuroides (ALOMY), Setaria faberi (SETFA), Echinochloa crus-galli (ECHCG), Abuthilon theophrasti (ABUTH) and Amaranthus retoflexus (AMARE)). After cultivation for one day (pre-emergence) or after 8 days cultivation (post-emergence) under controlled conditions in a glasshouse (at 24/16° C., day/night; 14 hours light; 65% humidity), the plants were sprayed with an aqueous spray solution derived from the formulation of the technical active ingredient in acetone/water (50:50) solution containing 0.5% Tween 20 (polyoxyethelyene sorbitan monolaurate, CAS RN 9005-64-5). Compounds were applied at 250 g/ha. The test plants were then grown in a glasshouse under controlled conditions in a glasshouse (at 24/16° C., day/night; 14 hours light; 65% humidity) and watered twice daily. After 13 days for pre and post-emergence, the test was evaluated (100=total damage to plant; 0=no damage to plant).

[2] = tested on: Abuthilon theophrasti (ABUTH); assay: Herbicidal glasshouse test, post-emergence; conditions: POST Application, evaluated after 13 days; for damage to plant (100=total damage to plant; 0=no damage to plant): 250 g/ha
Experimental: as §1

Setaria faberi (SETFA) [3] = assay: Herbicidal glasshouse test, post-emergence; conditions: POST Application, evaluated after 13 days; for damage to plant (100=total damage to plant; 0=no damage to plant): 250 g/ha
Experimental: as §1

[4] = tested on: Alopecurus myosuroides (ALOMY); assay: Herbicidal glasshouse test, post-emergence; conditions: POST Application, evaluated after 13 days; for damage to plant (100=total damage to plant; 0=no damage to plant): 250 g/ha
Experimental: as §1

[5] = tested on: Amaranthus retoflexus (AMARE); assay: Herbicidal glasshouse test, post-emergence; conditions: POST Application, evaluated after 13 days; for damage to plant (100=total damage to plant; 0=no damage to plant): 250 g/ha
Experimental: as §1

[6] = tested on: Echinochloa crus-galli (ECHCG); assay: Herbicidal glasshouse test, pre-emergence; conditions: PRE Application, evaluated after 13 days; for damage to plant (100=total damage to plant; 0=no damage to plant): 250 g/ha
Experimental: as §1

[7] = tested on: Abuthilon theophrasti (ABUTH); assay: Herbicidal glasshouse test, pre-emergence; conditions: PRE Application, evaluated after 13 days; for damage to plant (100=total damage to plant; 0=no damage to plant): 250 g/ha
Experimental: as §1

Setaria faberi (SETFA) [8] = assay: Herbicidal glasshouse test, pre-emergence; conditions: PRE Application, evaluated after 13 days; for damage to plant (100=total damage to plant; 0=no damage to plant): 250 g/ha
Experimental: as §1

[9] = tested on: Alopecurus myosuroides (ALOMY); assay: Herbicidal glasshouse test, pre-emergence; conditions: PRE Application, evaluated after 13 days; for damage to plant (100=total damage to plant; 0=no damage to plant): 250 g/ha
Experimental: as §1

[10] = tested on: Amaranthus retoflexus (AMARE); assay: Herbicidal glasshouse test, pre-emergence; conditions: PRE Application, evaluated after 13 days; for damage to plant (100=total damage to plant; 0=no damage to plant): 250 g/ha
Experimental: as §1

| SMILES | damage to plant (100=total damage to plant; 0=no damage to plant) [1] | damage to plant (100=total damage to plant; 0=no damage to plant) [2] | damage to plant (100=total damage to plant; 0=no damage to plant) (Setaria faberi (SETFA) [3]) | damage to plant (100=total damage to plant; 0=no damage to plant) [4] | damage to plant (100=total damage to plant; 0=no damage to plant) [5] | damage to plant (100=total damage to plant; 0=no damage to plant) [6] | damage to plant (100=total damage to plant; 0=no damage to plant) [7] | damage to plant (100=total damage to plant; 0=no damage to plant) (Setaria faberi (SETFA) [8]) | damage to plant (100=total damage to plant; 0=no damage to plant) [9] | damage to plant (100=total damage to plant; 0=no damage to plant) [10] | pest or weed control at 250 g/ha ([1]; Echinochloa crus-galli, post-emergence, 312 h, read-out: damage to plant (100=total damage to plant; 0=no damage to plant)) [%] | pest or weed control at 250 g/ha ([2]; Abutilon theophrasti, post-emergence, 312 h, read-out: damage to plant (100=total damage to plant; 0=no damage to plant)) [%] | pest or weed control at 250 g/ha (Setaria faberi (SETFA) [3]; Setaria faberi, post-emergence, 312 h, read-out: damage to plant (100=total damage to plant; 0=no damage to plant)) [%] | pest or weed control at 250 g/ha ([4]; Alopecurus myosuroides, post-emergence, 312 h, read-out: damage to plant (100=total damage to plant; 0=no damage to plant)) [%] | pest or weed control at 250 g/ha ([5]; Amaranthus retroflexus, post-emergence, 312 h, read-out: damage to plant (100=total damage to plant; 0=no damage to plant)) [%] | pest or weed control at 250 g/ha ([6]; Echinochloa crus-galli, pre-emergence, 312 h, read-out: damage to plant (100=total damage to plant; 0=no damage to plant)) [%] | pest or weed control at 250 g/ha ([7]; Abutilon theophrasti, pre-emergence, 312 h, read-out: damage to plant (100=total damage to plant; 0=no damage to plant)) [%] | pest or weed control at 250 g/ha (Setaria faberi (SETFA) [8]; Setaria faberi, pre-emergence, 312 h, read-out: damage to plant (100=total damage to plant; 0=no damage to plant)) [%] | pest or weed control at 250 g/ha ([9]; Alopecurus myosuroides, pre-emergence, 312 h, read-out: damage to plant (100=total damage to plant; 0=no damage to plant)) [%] | pest or weed control at 250 g/ha ([10]; Amaranthus retroflexus, pre-emergence, 312 h, read-out: damage to plant (100=total damage to plant; 0=no damage to plant)) [%] |
| --- | --- | --- | --- | --- | --- | --- | --- | --- | --- | --- | --- | --- | --- | --- | --- | --- | --- | --- | --- | --- |
| COc1ccc(Cn2c(=O)c(C(=O)C3C(=O)CCCC3=O)cc3cc(F)cnc32)cc1 [Compound 4.17] | 80 | 70 | 60 | 0 | 50 | 70 | 70 | 20 | 0 | 90 | – | – | – | – | – | – | – | – | – | – |
| COc1ccc(-n2c(=O)c(C(=O)C3C(=O)CCCC3=O)cc3cc(F)cnc32)cc1 [Compound 4.18] | 80 | 80 | 80 | 80 | 80 | 100 | 90 | 70 | 70 | 90 | – | – | – | – | – | – | – | – | – | – |
| COc1ccc(-n2c(=O)c(C(=O)C3C(=O)CCCC3=O)cc3cc(F)cnc32)cn1 [Compound 4.20] | 80 | 80 | 80 | 80 | 60 | 100 | 100 | 70 | 90 | 100 | – | – | – | – | – | – | – | – | – | – |
| Cc1ccccc1-n1c(=O)c(C(=O)C2C(=O)CCCC2=O)cc2cc(F)cnc21 [Compound 4.22] | 70 | 80 | 80 | 80 | 70 | 100 | 90 | 100 | 90 | 100 | – | – | – | – | – | – | – | – | – | – |
| O=C1CCCC(=O)C1C(=O)c1cc2cc(F)cnc2n(-c2cc(Cl)cc(Cl)c2)c1=O [Compound 4.23] | 80 | 80 | 70 | 70 | 80 | 100 | 80 | 90 | 90 | 70 | – | – | – | – | – | – | – | – | – | – |
| Cc1ccc(-n2c(=O)c(C(=O)C3C(=O)CCCC3=O)cc3cc(F)cnc32)cc1 [Compound 4.24] | 80 | 90 | 80 | 70 | 80 | 100 | 100 | 90 | 80 | 100 | – | – | – | – | – | – | – | – | – | – |
| O=C1CCCC(=O)C1C(=O)c1cc2cc(F)cnc2n(-c2cccc(Cl)c2)c1=O [Compound 4.25] | 80 | 80 | 80 | 80 | 70 | 100 | 90 | 100 | 90 | 50 | – | – | – | – | – | – | – | – | – | – |
| O=C1CCCC(=O)C1C(=O)c1cc2cc(F)cnc2n(-c2ccccc2Cl)c1=O [Compound 4.28] | 80 | 80 | 80 | 70 | 80 | 100 | 100 | 100 | 90 | 50 | – | – | – | – | – | – | – | – | – | – |
| COc1ccccc1-n1c(=O)c(C(=O)C2C(=O)CCCC2=O)cc2cc(F)cnc21 [Compound 4.33] | 90 | 80 | 90 | 100 | 80 | 100 | 100 | 100 | 100 | 100 | – | – | – | – | – | – | – | – | – | – |
| O=C1CCCC(=O)C1C(=O)c1cc2cc(F)cnc2n(-c2ccccc2C(F)(F)F)c1=O [Compound 4.34] | 90 | 80 | 80 | 90 | 80 | 100 | 100 | 100 | 100 | 100 | – | – | – | – | – | – | – | – | – | – |
| O=C1CCCC(=O)C1C(=O)c1cc2cc(F)cnc2n(-c2ccc(F)cc2F)c1=O [Compound 4.35] | 90 | 80 | 80 | 90 | 90 | 100 | 100 | 100 | 90 | 100 | – | – | – | – | – | – | – | – | – | – |
| O=C1CCCC(=O)C1C(=O)c1cc2cc(F)cnc2n(-c2ccccc2[N+](=O)[O-])c1=O [Compound 4.36] | – | – | – | – | – | – | – | – | – | – | 90 | 80 | 80 | 90 | 80 | 100 | 100 | 100 | 90 | 100 |
